Experiments:
GCN5 = GCN5 (Homo sapiens, UniProt Q92830); test: histone acetyltransferase; type: biochemical
[1] = system: bone marrow-derived macrophages (BMDMs); test: LPS-inducible gene expression in macrophages; type: cell-based, C57BL/6 mice; conditions: for number of LPS-inducible genes down-regulated: I-BET 1 μM, >2 fold
CBP = CBP (Homo sapiens, UniProt Q92793); test: histone acetyltransferase; type: biochemical
[2] = system: other bromodomain-containing proteins from each arm of the phylogeny tree; test: interaction with other bromodomain-containing proteins; type: binding; conditions: selectivity
[3] = system: il6 promoter in bone marrow-derived macrophages; test: ChIP of epigenetic marks at gene promoters in LPS-stimulated macrophages; type: cell-based, C57BL/6 mice; conditions: I-BET 5 μM
[4] = system: bone marrow-derived macrophages (BMDMs); test: LPS-induced signalling; type: cell-based, C57BL/6 mice; conditions: I-BET treated cells
[5] = system: bone marrow-derived macrophages (BMDMs); test: viability of BMDMs; type: cell-based, C57BL/6 mice
pCAF = pCAF (Homo sapiens, UniProt Q92831); test: histone acetyltransferase; type: biochemical
[6] = system: bone marrow-derived macrophages (BMDMs); test: gene transcription in BMDMs without LPS stimulation; type: cell-based, C57BL/6 mice; conditions: absence of LPS stimulation
p300 = p300 (Homo sapiens, UniProt Q09472); test: histone acetyltransferase; type: biochemical
[7] = system: panel of 38 unrelated proteins; test: activity towards a panel of unrelated proteins; conditions: selectivity
[8] = system: bone marrow-derived macrophages (BMDMs); type: cell-based, C57BL/6 mice; conditions: BMDM treatment with the HDAC inhibitor

Chain of pCAF (Q92831 whole entry, species assumed): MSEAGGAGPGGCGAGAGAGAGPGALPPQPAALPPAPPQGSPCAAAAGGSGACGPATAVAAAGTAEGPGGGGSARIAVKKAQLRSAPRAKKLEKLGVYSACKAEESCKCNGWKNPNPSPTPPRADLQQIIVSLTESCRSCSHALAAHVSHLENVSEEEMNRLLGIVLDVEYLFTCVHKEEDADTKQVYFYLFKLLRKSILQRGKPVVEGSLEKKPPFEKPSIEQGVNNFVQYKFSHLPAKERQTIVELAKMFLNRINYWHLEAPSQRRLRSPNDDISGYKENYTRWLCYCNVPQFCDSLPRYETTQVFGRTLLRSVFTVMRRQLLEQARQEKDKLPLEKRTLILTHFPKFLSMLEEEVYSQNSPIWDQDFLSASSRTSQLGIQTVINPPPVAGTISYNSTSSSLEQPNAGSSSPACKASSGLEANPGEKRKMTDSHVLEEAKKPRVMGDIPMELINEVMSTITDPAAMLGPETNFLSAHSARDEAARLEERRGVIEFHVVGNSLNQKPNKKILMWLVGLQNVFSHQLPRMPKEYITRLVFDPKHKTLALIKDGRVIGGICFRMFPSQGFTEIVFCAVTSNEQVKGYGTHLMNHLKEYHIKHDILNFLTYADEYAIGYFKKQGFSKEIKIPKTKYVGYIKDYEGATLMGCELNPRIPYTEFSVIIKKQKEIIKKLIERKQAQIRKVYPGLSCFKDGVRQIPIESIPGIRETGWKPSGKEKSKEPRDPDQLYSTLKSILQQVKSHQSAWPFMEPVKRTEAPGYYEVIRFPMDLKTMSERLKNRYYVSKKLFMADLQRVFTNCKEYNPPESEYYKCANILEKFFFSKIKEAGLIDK
Chain of GCN5 (Q92830 whole entry, species assumed): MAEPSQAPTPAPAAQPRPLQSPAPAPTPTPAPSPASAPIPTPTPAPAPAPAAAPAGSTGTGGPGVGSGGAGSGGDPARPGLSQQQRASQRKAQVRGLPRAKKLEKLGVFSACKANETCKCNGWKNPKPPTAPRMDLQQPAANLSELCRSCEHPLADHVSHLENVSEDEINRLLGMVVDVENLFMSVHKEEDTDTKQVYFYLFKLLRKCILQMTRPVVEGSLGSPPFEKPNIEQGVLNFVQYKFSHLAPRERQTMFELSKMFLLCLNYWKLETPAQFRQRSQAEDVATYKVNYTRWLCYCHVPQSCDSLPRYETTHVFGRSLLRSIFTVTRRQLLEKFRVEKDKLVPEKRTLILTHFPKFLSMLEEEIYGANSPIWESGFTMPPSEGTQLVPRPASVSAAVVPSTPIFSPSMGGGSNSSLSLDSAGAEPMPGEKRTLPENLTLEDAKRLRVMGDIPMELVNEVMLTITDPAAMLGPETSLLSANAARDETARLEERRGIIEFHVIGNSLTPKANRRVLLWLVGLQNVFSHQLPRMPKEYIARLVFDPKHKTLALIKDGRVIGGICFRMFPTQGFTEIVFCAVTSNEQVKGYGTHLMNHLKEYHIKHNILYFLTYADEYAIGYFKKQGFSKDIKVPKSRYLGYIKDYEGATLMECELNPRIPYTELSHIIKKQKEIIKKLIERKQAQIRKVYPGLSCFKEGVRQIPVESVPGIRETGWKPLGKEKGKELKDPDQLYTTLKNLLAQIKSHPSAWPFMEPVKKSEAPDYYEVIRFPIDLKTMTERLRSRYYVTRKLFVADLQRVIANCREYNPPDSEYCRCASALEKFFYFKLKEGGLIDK
Chain of p300 (Q09472 whole entry, species assumed): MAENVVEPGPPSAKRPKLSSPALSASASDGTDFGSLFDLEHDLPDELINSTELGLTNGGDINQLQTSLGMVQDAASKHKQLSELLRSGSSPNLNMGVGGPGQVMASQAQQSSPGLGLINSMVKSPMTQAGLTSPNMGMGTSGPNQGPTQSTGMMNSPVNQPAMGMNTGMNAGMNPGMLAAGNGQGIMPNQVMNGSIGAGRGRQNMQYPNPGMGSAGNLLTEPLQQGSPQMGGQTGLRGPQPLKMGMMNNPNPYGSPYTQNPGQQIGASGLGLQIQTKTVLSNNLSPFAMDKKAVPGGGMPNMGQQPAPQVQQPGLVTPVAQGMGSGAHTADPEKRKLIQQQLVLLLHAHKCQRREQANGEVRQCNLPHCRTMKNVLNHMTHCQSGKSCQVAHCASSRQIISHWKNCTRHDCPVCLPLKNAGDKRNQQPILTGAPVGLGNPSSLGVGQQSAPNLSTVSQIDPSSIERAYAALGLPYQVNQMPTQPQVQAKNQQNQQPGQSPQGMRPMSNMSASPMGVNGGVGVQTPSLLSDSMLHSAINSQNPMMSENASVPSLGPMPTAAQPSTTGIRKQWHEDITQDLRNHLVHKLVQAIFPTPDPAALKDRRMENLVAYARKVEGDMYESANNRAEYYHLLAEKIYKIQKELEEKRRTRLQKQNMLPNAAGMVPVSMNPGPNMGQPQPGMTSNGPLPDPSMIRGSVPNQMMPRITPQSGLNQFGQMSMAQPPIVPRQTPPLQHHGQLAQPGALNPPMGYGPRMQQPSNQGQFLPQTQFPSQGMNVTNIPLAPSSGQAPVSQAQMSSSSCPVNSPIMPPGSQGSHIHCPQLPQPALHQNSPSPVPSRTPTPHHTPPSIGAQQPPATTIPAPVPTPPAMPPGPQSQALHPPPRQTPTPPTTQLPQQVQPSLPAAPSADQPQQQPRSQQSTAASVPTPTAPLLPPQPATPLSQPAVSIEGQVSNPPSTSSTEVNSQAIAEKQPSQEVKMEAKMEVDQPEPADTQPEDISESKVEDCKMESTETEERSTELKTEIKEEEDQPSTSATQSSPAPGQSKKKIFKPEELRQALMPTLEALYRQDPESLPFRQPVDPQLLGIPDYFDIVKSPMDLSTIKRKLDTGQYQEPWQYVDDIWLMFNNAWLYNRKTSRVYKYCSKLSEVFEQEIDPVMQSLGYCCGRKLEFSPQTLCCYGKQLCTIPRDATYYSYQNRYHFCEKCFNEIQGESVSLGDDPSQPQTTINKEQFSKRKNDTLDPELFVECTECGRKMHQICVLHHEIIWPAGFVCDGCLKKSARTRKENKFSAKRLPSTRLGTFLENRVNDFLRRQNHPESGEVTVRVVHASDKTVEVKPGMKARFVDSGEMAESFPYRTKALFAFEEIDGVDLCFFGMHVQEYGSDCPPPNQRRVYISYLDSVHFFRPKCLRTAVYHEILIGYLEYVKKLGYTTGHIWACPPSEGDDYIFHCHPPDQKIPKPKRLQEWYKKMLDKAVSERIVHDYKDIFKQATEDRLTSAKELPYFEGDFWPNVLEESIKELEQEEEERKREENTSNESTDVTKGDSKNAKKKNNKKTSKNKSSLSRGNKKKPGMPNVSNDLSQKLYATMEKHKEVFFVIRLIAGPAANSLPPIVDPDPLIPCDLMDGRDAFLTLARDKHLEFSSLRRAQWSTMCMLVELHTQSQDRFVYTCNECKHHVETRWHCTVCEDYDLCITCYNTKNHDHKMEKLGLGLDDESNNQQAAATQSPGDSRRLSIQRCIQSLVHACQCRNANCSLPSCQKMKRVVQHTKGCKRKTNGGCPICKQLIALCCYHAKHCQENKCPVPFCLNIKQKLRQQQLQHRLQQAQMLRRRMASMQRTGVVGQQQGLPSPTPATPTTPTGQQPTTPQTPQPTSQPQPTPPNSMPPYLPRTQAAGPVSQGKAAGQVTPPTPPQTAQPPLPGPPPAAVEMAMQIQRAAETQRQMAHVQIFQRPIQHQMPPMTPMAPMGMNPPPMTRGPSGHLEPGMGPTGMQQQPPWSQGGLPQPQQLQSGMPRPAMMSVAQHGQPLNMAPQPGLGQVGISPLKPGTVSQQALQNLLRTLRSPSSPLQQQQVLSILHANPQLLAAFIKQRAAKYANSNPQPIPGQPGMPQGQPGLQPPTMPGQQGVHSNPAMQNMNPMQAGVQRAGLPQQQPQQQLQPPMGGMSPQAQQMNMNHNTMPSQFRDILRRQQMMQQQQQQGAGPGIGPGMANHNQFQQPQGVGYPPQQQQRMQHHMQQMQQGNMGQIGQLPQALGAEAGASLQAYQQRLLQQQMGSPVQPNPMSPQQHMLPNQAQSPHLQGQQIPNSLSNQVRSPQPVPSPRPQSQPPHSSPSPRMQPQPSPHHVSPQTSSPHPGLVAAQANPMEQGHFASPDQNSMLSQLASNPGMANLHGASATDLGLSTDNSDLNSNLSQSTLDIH

SMILES | suppression of HAT activity (GCN5) | number of LPS-inducible genes down-regulated ([1]; 1 hour after LPS) | number of LPS-inducible genes down-regulated ([1]; 4 hours after LPS) | expression of tnf, ccl2-5, cxcl1/2 ([1]; LPS-stimulated BMDMs) | suppression of HAT activity (CBP) | interaction with other bromodomain-containing proteins [2] | BET recruitment at il6 promoter [3] | LPS-induced ERK phosphorylation and IκBα degradation [4] | effect on viability of BMDMs [5] | suppression of HAT activity (pCAF) | effect on gene transcription [6] | suppression of HAT activity (p300) | activity towards a panel of 38 unrelated proteins [7] | conversion of sI-BET genes into naI-BET genes [8]
CCNC(=O)C[C@@H]1N=C(c2ccc(Cl)cc2)c2cc(OC)ccc2-n2c(C)nnc21 [I-BET] | inability of I-BET to suppress the activity | 38 | 151 | not affected | inability of I-BET to suppress the activity | did not interact | marked reduction | unaltered pattern | no effect | inability of I-BET to suppress the activity | marginal effect | inability of I-BET to suppress the activity | no activity | –
CC(/C=C/C(=O)NO)=C\[C@@H](C)C(=O)c1ccc(N(C)C)cc1 [trichostatin A] | – | – | – | – | – | – | – | – | – | – | – | – | – | able to “convert” sI-BET into naI-BET genes
